Values of other authors in patent US4231928A, “Antibacterial agents” (priority 1979, dated 1980).

System: Pseudomonas aeruginosa
Details: prior art penicillins; cited from earlier work

In the case of `CC1(C)S[C@@H]2[C@H](NC(=O)[C@H](C(=O)O)c3ccsc3)C(=O)N2[C@H]1C(=O)O` [ticarcillin], the “potency against Pseudomonas aeruginosa (in words)” value is listed as “only a relatively low potency”.
